Article PMC2713373 (Biochemistry, 2009)

Biological target: MtmOIV (Streptomyces argillaceus, UniProt Q194P4)
Assay: X-ray crystal structure, […] Å
Type: binding
Conditions: non-covalently bound, IN conformation

## Cc1cc2nc3c(=O)[nH]c(=O)nc-3n(C[C@H](O)[C@H](O)[C@H](O)COP(=O)(O)OP(=O)(O)OC[C@H]3O[C@@H](n4cnc5c(N)ncnc54)[C@H](O)[C@@H]3O)c2cc1C [FAD]
  X-ray crystal structure, 2.9 Å: The FAD cofactor was found non-covalently bound in the crystal structure
